{"source": "patent US20120238554A1", "about": "“SALTS OF POTASSIUM ATP CHANNEL OPENERS AND USES THEREOF” (priority 2007, published 2012)", "key": {"[1]": {"test": "Solubility in 100 mM phosphate buffer with titration, 18 h slurry (Table 15)", "type": "physicochemical", "settings": "thermodynamic from solid, ambient", "protocol": "Each determination was carried out in duplicate, slurrying each sample in a 100 mM phosphate buffer solution, pH 7.00. […] After this time all samples were centrifuged, and the supernatant was diluted with mobile phase (MeCN/Water.)."}, "[2]": {"test": "Moisture sorption analysis", "type": "physicochemical", "protocol": "Moisture Sorption Analysis was performed with a Hiden IGAsorp Moisture Sorption Instrument, Samples were first dried at 0% relative humidity at 25° C. until an equilibrium weight was reached, or for a maximum of 4 hours. Samples were then subjected to an isothermal (25° C.) scan from 10-90% relative humidity in steps of 10%. The samples were allowed to equilibrate to an asymptotic weight at each point for a maximum of 4 hours. Following absorption, a desorption scan from […] relative humidity (at 25° C.) was run in steps of −10%, again allowing a maximum of 4 hours for the samples to equilibrate. The resulting samples after desorption were dried at 80° C. for two hours and analyzed by XRPD."}, "[3]": {"test": "Form conversion and degradation under thermal stress (60° C.)", "settings": "60° C., closed, protected from light, 7 and 14 days", "protocol": "Studies were also conducted to evaluate the likelihood for conversion and degradation under thermal stress."}, "[4]": {"system": "patients with elevated fasting triglycerides", "test": "Diazoxide treatment of hypertriglyceridemia, 7 to 49 days: fasting triglycerides, LDL-cholesterol", "type": "in vivo, human", "settings": "for fasting triglycerides reduced: titrated patients", "method": "All patients were dosed once per day for an uninterrupted period of time.\nPatients were placed on a low fat diet at the start of treatment which continued to the end of treatment.\nEach subject's baseline circulating triglyceride level was calculated as the average of two measurements of fasting triglycerides taken approximately two weeks apart, with the second taken predose on the first day of treatment."}, "[5]": {"system": "cardiomyocytes from the infarct border zone", "settings": "cardiomyocytes from the infarct border zone (74 ms without, sham 41 ms); cited from earlier work"}, "[6]": {"system": "barbital-anesthetized open-chest pigs", "settings": "3.5 mg/kg IV, 30 min occlusion, 3 h reflow, n=7; cited from earlier work"}, "[7]": {"system": "person with pulmonary hypertension", "settings": "oral diazoxide over six years; cited from earlier work"}, "[8]": {"system": "patients with primary pulmonary hypertension", "settings": "cited from earlier work"}, "[9]": {"system": "Zucker Diabetic Fatty (ZDF) rats", "settings": "150 mg/kg/day, 8 weeks; cited from earlier work"}, "[10]": {"test": "Slurry studies of inter-conversion of the solid form", "settings": "room temperature, no light, 14 days; water, isopropyl alcohol, dichloromethane, toluene"}, "obese subjects": {"system": "obese subjects", "test": "Single 200 mg dose study: fasting glucose, insulin, NEFA, serum Na, K, creatinine", "settings": "either formulation", "method": "Three exploratory endpoints were evaluated in the study. Blood glucose, insulin and non-esterified fatty acids (NEFA) were measured prior to dosing and at 1, 3, 6, 9, 12, 24, and 48 hours post dosing. Blood glucose and insulin levels were also assessed at end of study. Data collected at times 1, 3, 24, and 48 hours after dose administration were obtained under fasting conditions. The remaining data points were post-prandial measures."}}, "data": [{"smiles": "CC1=NS(=O)(=O)c2cc(Cl)ccc2N1", "note": "[diazoxide, 7-chloro-3-methyl-2H-1,2,4-benzothiadiazine 1,1 dioxide]", "values": [{"measurement": "solubility at 18 h", "setting": "[1]; pH 6.9, aqueous buffer, pH after slurry 6.90", "result": 70, "unit": "µg/mL"}, {"measurement": "solubility at 18 h", "setting": "[1]; pH 7.31, aqueous buffer, pH after slurry 7.31", "result": 70, "unit": "µg/mL"}, {"measurement": "crystalline form after moisture sorption/desorption (XRPD)", "setting": "[2]", "result": "same crystalline form"}, {"measurement": "hydrate formation (hysteresis upon desorption)", "setting": "[2]; 25° C.", "result": "does not form a stable hydrate"}, {"measurement": "Moisture Sorption (hygroscopicity)", "setting": "[2]; 25° C., listed as free form diazoxide", "result": "non-hygroscopic"}, {"measurement": "water absorbed", "setting": "[2]; 60% RH, 25° C.", "result": "approximately 0.04 wt %"}, {"measurement": "water absorbed", "setting": "[2]; 90% RH, 25° C.", "result": "~0.20", "unit": "wt %"}, {"measurement": "form conversion and degradation under thermal stress (XRPD, DSC)", "setting": "[3]", "result": "no conversion or degradation"}, {"measurement": "reductions in fasting triglycerides", "setting": "[4]; 100 mg per day diazoxide equivalent as Diazoxide Choline Controlled-Release Tablets, 7 days", "result": 38, "unit": "%"}, {"measurement": "reductions in fasting triglycerides", "setting": "[4]; 100 mg per day diazoxide equivalent, 14 days", "result": 18, "unit": "%"}, {"measurement": "reductions in fasting triglycerides", "setting": "[4]; 150 mg for 5 days then 300 mg for 9 days, at 7 and 14 days", "result": 50, "unit": "%"}, {"measurement": "reductions in fasting triglycerides", "setting": "[4]; 200 mg per day diazoxide equivalent, 7 days", "result": 23, "unit": "%"}, {"measurement": "reductions in fasting triglycerides", "setting": "[4]; 200 mg per day diazoxide equivalent, 14 days", "result": 20, "unit": "%"}, {"measurement": "reductions in fasting triglycerides", "setting": "[4]; 300 mg per day diazoxide equivalent, 7 days", "result": 18, "unit": "%"}, {"measurement": "reductions in fasting triglycerides", "setting": "[4]; 300 mg per day diazoxide equivalent, 14 days", "result": 29, "unit": "%"}, {"measurement": "reductions in fasting triglycerides", "setting": "[4]; 400 mg per day diazoxide equivalent, 7 days", "result": 50, "unit": "%"}, {"measurement": "rise in LDL-cholesterol", "setting": "[4]; Patient 13, day 21", "result": 6.7, "unit": "%"}, {"measurement": "rise in LDL-cholesterol", "setting": "[4]; Patient 13, day 42", "result": 11, "unit": "%"}, {"measurement": "reductions in LDL-cholesterol", "setting": "[4]; patient 8", "result": "−8.6", "unit": "%"}, {"measurement": "reductions in LDL-cholesterol", "setting": "[4]; patient 9", "result": "−15.3", "unit": "%"}, {"measurement": "fasting triglycerides reduced", "setting": "[4]; end of treatment with 150 mg", "result": 21, "unit": "%"}, {"measurement": "fasting triglycerides reduced", "setting": "[4]; end of treatment with 200 mg", "result": 31, "unit": "%"}, {"measurement": "fasting triglycerides reduced", "setting": "[4]; end of treatment with 250 mg", "result": 38, "unit": "%"}, {"measurement": "fasting triglycerides reduced", "setting": "[4]; end of treatment with 300 mg", "result": 38, "unit": "%"}, {"measurement": "fasting triglycerides reduced", "setting": "[4]; end of treatment with 350 mg", "result": 49, "unit": "%"}, {"measurement": "action potential duration", "setting": "[5]", "result": 42, "unit": "ms"}, {"measurement": "Infarct size (percentage of the area at risk)", "setting": "[6]", "result": "14.6±7.4", "unit": "%"}, {"measurement": "pulmonary arterial pressure", "setting": "[7]", "result": "reduced to normal levels"}, {"measurement": "change in pulmonary artery pressure", "setting": "[8]; injected into the pulmonary artery, nine patients", "result": "no significant change"}, {"measurement": "patients unable to tolerate the drug", "setting": "[8]; oral diazoxide given to seven patients", "result": "Five"}, {"measurement": "hepatic triglycerides, long chain acyl-CoA and cholesterol contents", "setting": "[9]", "result": "decreased"}, {"measurement": "inter-conversion of the solid form in slurry", "setting": "[10]", "result": "did not convert to alternate crystal forms"}, {"measurement": "fasting glucose", "setting": "obese subjects; 24 or 48 hours after dose administration", "result": "no evidence for a significant increase in fasting glucose"}, {"measurement": "fasting insulin", "setting": "obese subjects; after the single 200 mg dose", "result": "no evidence for a reduction in fasting insulin"}]}]}
